Numbers after ± are expanded uncertainties.
Key:
[1] = 100 kPa, Liquid; for speed of sound: Frequency=3 MHz, Single path-length method; for mass density: Vibrating tube method
[2] = xn = mol fraction of the nth substance listed; details: 100 kPa, Liquid, x1 = 1; for speed of sound: Frequency=3 MHz, Single path-length method; for mass density: Vibrating tube method

SMILES | speed of sound ([1]; 298.15 K) [m/s] | mass density ([1]; 298.15 K) [kg/m3] | speed of sound ([1]; 303.15 K) [m/s] | mass density ([1]; 303.15 K) [kg/m3] | speed of sound ([1]; 308.15 K) [m/s] | mass density ([1]; 308.15 K) [kg/m3] | speed of sound ([1]; 313.15 K) [m/s] | mass density ([1]; 313.15 K) [kg/m3] | speed of sound ([1]; 318.15 K) [m/s] | mass density ([1]; 318.15 K) [kg/m3] | speed of sound ([1]; 323.15 K) [m/s] | mass density ([1]; 323.15 K) [kg/m3] | speed of sound ([2]; 298.15 K) [m/s] | mass density ([2]; 298.15 K) [kg/m3] | speed of sound ([2]; 303.15 K) [m/s] | mass density ([2]; 303.15 K) [kg/m3] | speed of sound ([2]; 308.15 K) [m/s] | mass density ([2]; 308.15 K) [kg/m3] | speed of sound ([2]; 313.15 K) [m/s] | mass density ([2]; 313.15 K) [kg/m3] | other results
CCC(O)CO (centres undefined) [1,2-butanediol] | 1452.5 ± 1.4 | 998.56 ± 2 | 1437.9 ± 1.4 | 994.75 ± 2 | 1423.3 ± 1.4 | 990.92 ± 2 | 1408.7 ± 1.4 | 987.11 ± 2 | 1394.1 ± 1.4 | 983.28 ± 2 | 1379.5 ± 1.4 | 979.46 ± 2 | – | – | – | – | – | – | – | – | –
CCCC(=O)OCC [ethyl butanoate] + CCC(O)CO | – | – | – | – | – | – | – | – | – | – | – | – | 1171.8 ± 1 | 874.31 ± 2 | 1151.1 ± 1 | 868.85 ± 2 | 1130.2 ± 1 | 863.4 ± 2 | 1109 ± 1 | 857.94 ± 2 | speed of sound ([2]; 318.15 K): 1088 ± 1 m/s; mass density ([2]; 318.15 K): 852.49 ± 2 kg/m3; speed of sound ([2]; 323.15 K): 1067.1 ± 1 m/s; mass density ([2]; 323.15 K): 847.03 ± 2 kg/m3
OCCCCO [1,4-butanediol] | 1601.9 ± 1.1 | 1012.8 ± 2 | 1590.3 ± 1.1 | 1009.77 ± 2 | 1578.6 ± 1.1 | 1006.74 ± 2 | 1567 ± 1.1 | 1003.7 ± 2 | 1555.3 ± 1.1 | 1000.67 ± 2 | 1543.7 ± 1.1 | 997.63 ± 2 | – | – | – | – | – | – | – | – | –
CCCC(=O)OCC [ethyl butanoate] | 1171.8 ± 1 | 874.31 ± 2 | 1151.1 ± 1 | 868.85 ± 2 | 1130.2 ± 1 | 863.4 ± 2 | 1109 ± 1 | 857.94 ± 2 | 1088 ± 1 | 852.49 ± 2 | 1067.1 ± 1 | 847.03 ± 2 | – | – | – | – | – | – | – | – | –
CCCC(=O)OCC [ethyl butanoate] + CC(O)CCO | – | – | – | – | – | – | – | – | – | – | – | – | 1171.8 ± 1 | 874.31 ± 2 | 1151.1 ± 1 | 868.85 ± 2 | 1130.2 ± 1 | 863.4 ± 2 | 1109 ± 1 | 857.94 ± 2 | speed of sound ([2]; 318.15 K): 1088 ± 1 m/s; mass density ([2]; 318.15 K): 852.49 ± 2 kg/m3; speed of sound ([2]; 323.15 K): 1067.1 ± 1 m/s; mass density ([2]; 323.15 K): 847.03 ± 2 kg/m3
CCCC(=O)OCC [ethyl butanoate] + OCCCCO | – | – | – | – | – | – | – | – | – | – | – | – | 1171.8 ± 1 | 874.31 ± 2 | 1151.1 ± 1 | 868.85 ± 2 | 1130.2 ± 1 | 863.4 ± 2 | 1109 ± 1 | 857.94 ± 2 | speed of sound ([2]; 318.15 K): 1088 ± 1 m/s; mass density ([2]; 318.15 K): 852.49 ± 2 kg/m3; speed of sound ([2]; 323.15 K): 1067.1 ± 1 m/s; mass density ([2]; 323.15 K): 847.03 ± 2 kg/m3
CC(O)CCO (centres undefined) [1,3-butanediol] | 1527.9 ± 1.4 | 1001.87 ± 2 | 1514 ± 1.4 | 998.41 ± 2 | 1500.1 ± 1.4 | 994.94 ± 2 | 1486.2 ± 1.4 | 991.49 ± 2 | 1472.3 ± 1.4 | 988.02 ± 2 | 1458.4 ± 1.4 | 984.56 ± 2 | – | – | – | – | – | – | – | – | –

Source: the NIST ThermoML archive (doi:10.1016/j.jct.2019.05.002)
